Structures can show the parent of a compound that is named as a salt.
How the values were obtained:
BIR2 domain of XIAP = BIR2 domain of XIAP (Homo sapiens (Human), UniProt P98170, C202A/C213G); experiment: TR-FRET assay for BIR2 (inhibition of binding of XIAP BIR2 domain to SMAC-derived Peptide A); settings: 6x His-tagged BIR2 domain (aa 124-240 of XIAP) 10 nM, Peptide A 20 nM, TR-FRET; read-out: IC50 BIR2
BIR3 domain of XIAP = BIR3 domain of XIAP (Homo sapiens (Human), UniProt P98170); experiment: TR-FRET assay for BIR3 (inhibition of binding of XIAP BIR3 domain to SMAC-derived Peptide A); settings: 6x His-tagged BIR3 domain (aa 241-356 of XIAP) 10 nM, Peptide A 20 nM, TR-FRET
Sequence of BIR3 domain of XIAP (P98170 241-356 with tags or gaps limits assumed): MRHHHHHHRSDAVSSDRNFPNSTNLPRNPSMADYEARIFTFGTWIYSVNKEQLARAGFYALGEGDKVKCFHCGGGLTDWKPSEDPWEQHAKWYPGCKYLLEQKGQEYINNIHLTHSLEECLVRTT

Sequence of BIR2 domain of XIAP (P98170 124-240 with tags or gaps C202A/C213G limits assumed): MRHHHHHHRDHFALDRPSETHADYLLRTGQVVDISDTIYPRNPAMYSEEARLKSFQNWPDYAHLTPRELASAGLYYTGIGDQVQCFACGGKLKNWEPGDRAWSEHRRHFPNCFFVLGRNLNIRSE

Structure (SMILES)	IC50 (BIR2 domain of XIAP) [nM]	IC50 (BIR3 domain of XIAP) [nM]
CN[C@@H](C)C(=O)N[C@H]1CN(C(=O)c2ccc(C(O)C(F)(F)F)cc2)c2ccccc2N(Cc2c(OC)ccc3cc(Br)ccc23)C1=O (mixture of isomers) [Example 32, (S)—N—{(S)-1-(6-Bromo-2-methoxy-naphthalen-1-ylmethyl)-2-oxo-5-[4-(2,2,2-trifluoro-1-hydroxy-ethyl)-benzoyl]-2,3,4,5-tetrahydro-1H-benzo[b][1,4]diazepin-3-yl}-2-methylamino-propionamide hydrochloride, mixture of diastereomers]	25	
CN[C@@H](C)C(=O)N[C@H]1CN(C(=O)c2ccccc2[C@H](C)O)c2ccccc2N(Cc2c(C)ccc3ccccc23)C1=O (stereo in doubt) [Example 153, (25)-N-[(3S)-1-[2-[(1S)-1-hydroxyethyl]benzoyl]-5-[(2-methylnaphthalen-l-yl)methyl]-4-oxo-2,3-dihydro-1,5-benzodiazepin-3-yl]-2-(methylamino)propanamide;(2S)-N-[(3S)-1-[2-[(1R)-1-hydroxyethyl]benzoyl]-5-[(2-methylnaphthalen-1-yl)methyl]-4-oxo-2,3-dihydro-1,5-benzodiazepin-3-yl]-2-(methylamino)propanamide]	52.4	
CN[C@@H](C)C(=O)N[C@H]1CN(CCc2ccccc2)c2ccccc2N(Cc2cccc3ccccc23)C1=O [Example 7, (S)-2-Methylamino-N—((S)-1-naphthalen-1-ylmethyl-2-oxo-5-phenethyl-2,3,4,5-tetrahydro-1H-benzo[b][1,4]diazepin-3-yl)-propionamide trifluoroacetate]	1550	
CN[C@@H](C)C(=O)N[C@H]1CN(C(=O)COCCOCCOC)c2ccccc2N(Cc2c(C)ccc3ccccc23)C1=O [Example 13, (S)—N—[(S)-5-{2-[2-(2-Methoxy-ethoxy)-ethoxy]-acetyl}-1-(2-methyl-naphthalen-1-ylmethyl)-2-oxo-2,3,4,5-tetrahydro-1H-benzo[b][1,4]diazepin-3-yl]-2-methylamino-propionamide hydrochloride]	234	
CN[C@@H](C)C(=O)N[C@H]1CN(C(=O)CC2CCCCC2)c2ccccc2N(Cc2c(OC)ccc3cc(Br)ccc23)C1=O [Example 13i]	78	
CN[C@@H](C)C(=O)N[C@H]1CN(C(=O)c2ccc(C(=O)C(C)(C)C)cc2)c2ccccc2N(Cc2c(OC)ccc3cc(Br)ccc23)C1=O [Example 13j]	37	
CN[C@@H](C)C(=O)N[C@H]1CN(C(=O)c2cccc(C(C)=O)c2)c2ccccc2N(Cc2c(OC)ccc3cc(Br)ccc23)C1=O [Example 13l]	67	
CN[C@@H](C)C(=O)N[C@H]1CN(C(=O)Cc2ccc(C(C)=O)cc2)c2ccccc2N(Cc2c(OC)ccc3cc(Br)ccc23)C1=O [Example 13o]	28	
CN[C@@H](C)C(=O)N[C@H]1CN(C(=O)CC23CC4CC(CC(C4)C2)C3)c2ccccc2N(Cc2c(OC)ccc3cc(Br)ccc23)C1=O [Example 13q]	92	
CN[C@@H](C)C(=O)N[C@H]1CN(C(=O)CCCC(C)=O)c2ccccc2N(Cc2c(OC)ccc3cc(Br)ccc23)C1=O [Example 27, (S)—N—((S)-1-((6-bromo-2-methoxynaphthalen-1-yl)methyl)-2-oxo-5-(5-oxohexanoyl)-2,3,4,5-tetrahydro-1H-benzo[b][1,4]diazepin-3-yl)-2-(methylamino)propanamide hydrochloride]	33	
CN[C@@H](C)C(=O)N[C@H]1CN(C(=O)c2ccc(C(=O)OC)cc2)c2ccccc2N(Cc2c(OC)ccc3cc(Br)ccc23)C1=O [Example 28, 4-[(S)-5-(6-Bromo-2-methoxy-naphthalen-1-ylmethyl)-3-((S)-2-methylamino-propionylamino)-4-oxo-2,3,4,5-tetrahydro-benzo[b][1,4]diazepine-1-carbonyl]-benzoic acid methyl ester hydrochloride]	39	
CN[C@@H](C)C(=O)N[C@H]1CN(C(=O)c2ccc(C(=O)O)cc2)c2ccccc2N(Cc2c(OC)ccc3cc(Br)ccc23)C1=O [Example 29, 4-[(S)-5-(6-Bromo-2-methoxy-naphthalen-1-ylmethyl)-3-((S)-2-methylamino-propionylamino)-4-oxo-2,3,4,5-tetrahydro-benzo[b][1,4]diazepine-1-carbonyl]-benzoic acid hydrochloride]	28	
CN[C@@H](C)C(=O)N[C@H]1CN(C(=O)C23CC4CC(CC(C4)C2)C3)c2ccccc2N(Cc2c(OC)ccc3cc(Br)ccc23)C1=O [Example 34, (S)—N—[(S)-5-(Adamantane-1-carbonyl)-1-(6-bromo-2-methoxy-naphthalen-1-ylmethyl)-2-oxo-2,3,4,5-tetrahydro-1H-benzo[b][1,4]diazepin-3-yl]-2-methylamino-propionamide hydrochloride]	33	
COc1ccc2cc(Br)ccc2c1CN1C(=O)[C@@H](NC(=O)[C@@H]2CCN2)CN(C(=O)c2ccc(C(C)=O)cc2)c2ccccc21 [Example 36, (S)—N—((S)-5-(4-acetylbenzoyl)-1-((6-bromo-2-methoxynaphthalen-1-yl)methyl)-2-oxo-2,3,4,5-tetrahydro-1H-benzo[b][1,4]diazepin-3-yl)azetidine-2-carboxamide hydrochloride]	5000	
COc1ccc2cc(Br)ccc2c1CN1C(=O)[C@@H](NC(=O)[C@H](C)N)CN(C(=O)c2ccc(C(C)=O)cc2)c2ccccc21 [Example 39, (S)—N—((S)-5-(4-acetylbenzoyl)-1-((6-bromo-2-methoxynaphthalen-1-yl)methyl)-2-oxo-2,3,4,5-tetrahydro-1H-benzo[b][1,4]diazepin-3-yl)-2-aminopropanamide hydrochloride]	19	
CN[C@@H](C)C(=O)N[C@H]1CN(C(=O)CCCC(C)=O)c2ccccc2N(Cc2c(OC)ccc3cc(C(=O)OC)ccc23)C1=O [Example 46, 6-Methoxy-5-[(S)-3 ((S)-2-methylamino-propionylamino)-2-oxo-5-(5-oxo-hexanoyl)-2,3,4,5-tetrahydro-benzo[b][1,4]diazepin-1-ylmethyl]-naphthalene-2-carboxylic acid methyl ester hydrochloride]	62	
CN[C@@H](C)C(=O)N[C@H]1CN(C(=O)CCN)c2ccccc2N(Cc2c(OC)ccc3cc(C(=O)O)ccc23)C1=O [Example 62, 5-(((S)-5-(3-aminopropanoyl)-3-((S)-2-(methylamino)propanamido)-2-oxo-2,3,4,5-tetrahydro-1H-benzo[b][1,4]diazepin-1-yl)methyl)-6-methoxy-2-naphthoic acid hydrochloride]	17	
CN[C@H](C)C(=O)N[C@H]1CN(C(=O)c2ccc(C(C)=O)cc2)c2ccccc2N(Cc2c(C)ccc3ccccc23)C1=O [Example 68, (R)—N—((S)-5-(4-acetylbenzoyl)-1-((2-methylnaphthalen-1-yl)methyl)-2-oxo-2,3,4,5-tetrahydro-1H-benzo[b][1,4]diazepin-3-yl)-2-(methylamino)propanamide hydrochloride]		> 54800
CN[C@@H](C)C(=O)N[C@H]1CN(C(=O)CC2CCOCC2)c2ccccc2N(Cc2c(OC)ccc3c(Br)cccc23)C1=O [Example 87, (S)—N—((S)-1-((5-bromo-2-methoxynaphthalen-1-yl)methyl)-2-oxo-5-(2-(tetrahydro-2H-pyran-4-yl)acetyl)-2,3,4,5-tetrahydro-1H-benzo[b][1,4]diazepin-3-yl)-2-(methylamino)propanamide hydrochloride]		54400

— patent publication US10053431B2, “Tetrahydro-benzodiazepinones” (priority 2013, dated 2018)
